The values that follow come from PubChem BioAssay AID256 (DTP/NCI, 2004).

The test system of this assay is CD2F1 mice, L1210 leukemia ip, survival T/C. The assay is described as follows: NCI In Vivo Anticancer Drug Screen. Data for tumor model L1210 Leukemia (intraperitoneal) in CD2F1 (CDF1) mice. The conditions noted are these: higher = longer survival. The essentials:
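Transplantable tumor in mice; compound-treated vs vehicle-treated groups. Read-out = treated/control ratio of the measured endpoint.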

The mark [1] stands for this setting: endpoint: mean survival time, dose: 100.0 mg/kg/injection, schedule: Q01DX009 (ip), vehicle: saline with Tween-80.
Setting [2] is: endpoint: mean survival time, dose: 100.0 mg/kg/injection, schedule: Q04DX003 (ip), vehicle: saline with Tween-80.
[3] abbreviates: endpoint: mean survival time, dose: 200.0 mg/kg/injection, schedule: Q01DX009 (ip), vehicle: saline with Tween-80.
[4] abbreviates: endpoint: mean survival time, dose: 200.0 mg/kg/injection, schedule: Q04DX003 (ip), vehicle: saline with Tween-80.
[5] abbreviates: endpoint: mean survival time, dose: 400.0 mg/kg/injection, schedule: Q01DX009 (ip), vehicle: saline with Tween-80.
Where [6] appears, read: endpoint: mean survival time, dose: 400.0 mg/kg/injection, schedule: Q04DX003 (ip), vehicle: saline with Tween-80.
[7] abbreviates: endpoint: mean survival time, dose: 25.0 mg/kg/injection, schedule: Q01DX009 (ip), vehicle: saline with Tween-80.
Setting [8] is: endpoint: mean survival time, dose: 50.0 mg/kg/injection, schedule: Q01DX009 (ip), vehicle: saline with Tween-80.
[9] abbreviates: endpoint: mean survival time, dose: 50.0 mg/kg/injection, schedule: Q01DX009 (ip), vehicle: saline.
Setting [10] is: endpoint: mean survival time, dose: 75.0 mg/kg/injection, schedule: Q01DX001 (ip), vehicle: saline.
Setting [11] is: endpoint: mean survival time, dose: 100.0 mg/kg/injection, schedule: Q04DX003 (ip), vehicle: saline.
[12] abbreviates: endpoint: mean survival time, dose: 200.0 mg/kg/injection, schedule: Q04DX003 (ip), vehicle: saline.
Where [13] appears, read: endpoint: mean survival time, dose: 400.0 mg/kg/injection, schedule: Q04DX003 (ip), vehicle: saline.

Values joined by “and” are separate entries in the source; they are usually repeats but may differ in a detail not shown here. Equal entries are not always repeated. Toxic doses and inconclusive results are not listed.

Turning to `COc1ccc([Si](F)(c2ccc(OC)cc2)c2ccc(OC)cc2)cc1`, the T/C is 100 % of control under setting [1]; 95 % of control under setting [2]; 94 % of control under setting [3]; 93 % of control under setting [4]; 93 % of control under setting [5]; 90 % of control under setting [6].
Take `Nc1ccc(OCCCc2ccccc2)c([N+](=O)[O-])c1`: the T/C is 92 % of control and 100 % of control (endpoint: mean survival time, dose: 100.0 mg/kg/injection, schedule: Q01DX001 (ip), vehicle: other); 96 % of control and 102 % of control under setting [1]; 98 % of control (endpoint: mean survival time, dose: 100.0 mg/kg/injection, schedule: Q04DX002 (ip), vehicle: other); 98 % of control (endpoint: mean survival time, dose: 100.0 mg/kg/injection, schedule: Q04DX003 (ip), vehicle: other); 93 % of control and 98 % of control (endpoint: mean survival time, dose: 200.0 mg/kg/injection, schedule: Q01DX001 (ip), vehicle: other); 96 % of control and 106 % of control under setting [3]. The T/C reads like this: (endpoint: mean survival time, dose: 200.0 mg/kg/injection, schedule: Q04DX002 (ip), vehicle: other) 100 % of control; (endpoint: mean survival time, dose: 200.0 mg/kg/injection, schedule: Q04DX003 (ip), vehicle: other) 100 % of control; under setting [5], 122 % of control and 93 % of control; (endpoint: mean survival time, dose: 400.0 mg/kg/injection, schedule: Q04DX002 (ip), vehicle: other) 102 % of control.
With `NCC(=O)Nc1ccc(O)cc1`, the T/C was 104 % of control (endpoint: mean survival time, dose: 180.0 mg/kg/injection, schedule: Q04DX003 (ip), vehicle: saline) and 98 % of control (endpoint: mean survival time, dose: 405.0 mg/kg/injection, schedule: Q04DX003 (ip), vehicle: saline).
On to `CCC(CC)COC(=O)c1ccccc1C(=O)OCC(CC)CC`, for which the T/C is 108 % of control (endpoint: mean survival time, dose: 12.5 mg/kg/injection, schedule: Q01DX009 (ip), vehicle: saline with Tween-80); 101 % of control under setting [7]; 104 % of control under setting [8]; 102 % of control under setting [1]; 98 % of control under setting [3]; 100 % of control under setting [5].
With `FC(F)(F)c1ccc2ccc3ccc(Cl)cc3c2c1`, the T/C runs as follows: (endpoint: mean survival time, dose: 37.5 mg/kg/injection, schedule: Q01DX009 (ip), vehicle: saline) 97 % of control; (endpoint: mean survival time, dose: 75.0 mg/kg/injection, schedule: Q01DX009 (ip), vehicle: saline) 94 % of control; (endpoint: mean survival time, dose: 75.0 mg/kg/injection, schedule: Q04DX003 (ip), vehicle: saline) 91 % of control; (endpoint: mean survival time, dose: 150.0 mg/kg/injection, schedule: Q01DX009 (ip), vehicle: saline) 91 % of control; (endpoint: mean survival time, dose: 150.0 mg/kg/injection, schedule: Q04DX003 (ip), vehicle: saline) 95 % of control; (endpoint: mean survival time, dose: 300.0 mg/kg/injection, schedule: Q04DX003 (ip), vehicle: saline) 97 % of control.
On to `COc1cc2c(cc1OC)CCN=C2`, for which the T/C runs as follows: under setting [9], 106 % of control; (endpoint: mean survival time, dose: 100.0 mg/kg/injection, schedule: Q01DX009 (ip), vehicle: saline) 92 % of control.
For the molecule `Cc1c[n+](Cc2ccccc2)ccn1`, the T/C reads like this: under setting [10], 102 % of control; (endpoint: mean survival time, dose: 150.0 mg/kg/injection, schedule: Q01DX001 (ip), vehicle: saline) 102 % of control; (endpoint: mean survival time, dose: 300.0 mg/kg/injection, schedule: Q01DX001 (ip), vehicle: saline) 98 % of control.
Regarding `COC(OC(CO)C(O)S(=O)(=O)O)C(O)S(=O)(=O)O` (stereo not drawn), the T/C reads like this: (endpoint: mean survival time, dose: 50.0 mg/kg/injection, schedule: Q01DX001 (ip), vehicle: saline) 103 % of control; under setting [9], 124 % of control; (endpoint: mean survival time, dose: 50.0 mg/kg/injection, schedule: Q01DX009 (sc), vehicle: saline) 104 % of control; (endpoint: mean survival time, dose: 50.0 mg/kg/injection, schedule: Q03HX016 (ip), vehicle: saline) 115 % of control; (endpoint: mean survival time, dose: 100.0 mg/kg/injection, schedule: Q01DX001 (ip), vehicle: saline) 118 % of control; (endpoint: mean survival time, dose: 100.0 mg/kg/injection, schedule: Q01DX009 (oral), vehicle: saline) 105 % of control. Besides, the T/C was 101 % of control (endpoint: mean survival time, dose: 100.0 mg/kg/injection, schedule: Q01DX009 (sc), vehicle: saline); 160 % of control (endpoint: mean survival time, dose: 100.0 mg/kg/injection, schedule: Q03HX008 (ip), vehicle: saline); 153 % of control (endpoint: mean survival time, dose: 100.0 mg/kg/injection, schedule: Q03HX016 (ip), vehicle: saline); 109 % of control (endpoint: mean survival time, dose: 100.0 mg/kg/injection, schedule: Q08DX002 (ip), vehicle: saline); 92 % of control (endpoint: mean survival time, dose: 200.0 mg/kg/injection, schedule: Q01DX009 (oral), vehicle: saline); 101 % of control (endpoint: mean survival time, dose: 200.0 mg/kg/injection, schedule: Q01DX009 (sc), vehicle: saline). Also, the T/C is, setting by setting: (endpoint: mean survival time, dose: 200.0 mg/kg/injection, schedule: Q08DX002 (ip), vehicle: saline) 120 % of control; (endpoint: mean survival time, dose: 400.0 mg/kg/injection, schedule: Q01DX009 (ip), vehicle: saline) 168 % of control; (endpoint: mean survival time, dose: 400.0 mg/kg/injection, schedule: Q01DX009 (oral), vehicle: saline) 94 % of control; (endpoint: mean survival time, dose: 400.0 mg/kg/injection, schedule: Q01DX009 (sc), vehicle: saline) 106 % of control; (endpoint: mean survival time, dose: 800.0 mg/kg/injection, schedule: Q01DX009 (oral), vehicle: saline) 94 % of control; (endpoint: mean survival time, dose: 800.0 mg/kg/injection, schedule: Q04DX003 (ip), vehicle: saline) 178 % of control.
Turning to `O=C1OCCN1S(=O)(=O)c1ccc(Cl)cc1`, the T/C was 95 % of control under setting [1]; 104 % of control under setting [2]; 93 % of control under setting [3]; 102 % of control under setting [4]; 95 % of control under setting [5]; 98 % of control under setting [6].
For `NCCCNCCCCNC(=O)C(O)NC(=O)CC(O)CCCCN=C(N)N` (stereo not drawn), the T/C runs as follows: (endpoint: median survival time, dose: 1.56 mg/kg/injection, schedule: Q01DX009 (ip), vehicle: saline) 161 % of control and 181 % of control; (endpoint: median survival time, dose: 3.0 mg/kg/injection, schedule: Q01DX009 (ip), vehicle: saline) 162 % of control; (endpoint: median survival time, dose: 3.12 mg/kg/injection, schedule: Q01DX009 (ip), vehicle: saline) 164 % of control and 168 % of control and 210 % of control; (endpoint: median survival time, dose: 6.0 mg/kg/injection, schedule: Q01DX009 (ip), vehicle: saline) 207 % of control; (endpoint: median survival time, dose: 6.25 mg/kg/injection, schedule: Q01DX009 (ip), vehicle: saline) 164 % of control and 191 % of control and 219 % of control; (endpoint: median survival time, dose: 12.0 mg/kg/injection, schedule: Q01DX009 (ip), vehicle: saline) 219 % of control. Moreover, the T/C was 173 % of control and 196 % of control and 217 % of control (endpoint: median survival time, dose: 12.5 mg/kg/injection, schedule: Q01DX009 (ip), vehicle: saline); 206 % of control and 235 % of control (endpoint: median survival time, dose: 100.0 mg/kg/injection, schedule: Q01DX009 (ip), vehicle: saline).
For `C[N+]1(C)CCc2cc(O)c(O)cc2C1Cc1ccc(O)c(O)c1` (stereo not drawn), the T/C under setting [10] was 102 % of control.
Regarding `CCCCN(C)CCNc1cc(C)nc(Nc2nc3ccc(Cl)cc3[nH]2)n1`, the T/C is 88 % of control (endpoint: mean survival time, dose: 16.5 mg/kg/injection, schedule: Q01DX009 (ip), vehicle: saline with Tween-80); 97 % of control under setting [7]; 95 % of control (endpoint: mean survival time, dose: 37.5 mg/kg/injection, schedule: Q01DX009 (ip), vehicle: saline with Tween-80); 90 % of control under setting [8]; 90 % of control (endpoint: mean survival time, dose: 100.0 mg/kg/injection, schedule: Q01DX001 (ip), vehicle: saline with Tween-80); 94 % of control (endpoint: mean survival time, dose: 200.0 mg/kg/injection, schedule: Q01DX001 (ip), vehicle: saline with Tween-80).
Take `ICC12CCC1(CI)COC2` (stereo not drawn): the T/C is, setting by setting: under setting [11], 96 % of control; under setting [12], 96 % of control; under setting [13], 93 % of control.
Take `CCCCCCCCCCCCCCCCN(C)c1ccc(C(=O)OC)cc1[N+](=O)[O-]`: the T/C reads like this: (endpoint: mean survival time, dose: 100.0 mg/kg/injection, schedule: Q01DX009 (ip), vehicle: Klucel (hydroxypropylcellulose) (HPC)) 97 % of control; under setting [11], 98 % of control; (endpoint: mean survival time, dose: 200.0 mg/kg/injection, schedule: Q01DX009 (ip), vehicle: Klucel (hydroxypropylcellulose) (HPC)) 101 % of control; under setting [12], 91 % of control; (endpoint: mean survival time, dose: 400.0 mg/kg/injection, schedule: Q01DX009 (ip), vehicle: Klucel (hydroxypropylcellulose) (HPC)) 97 % of control; under setting [13], 95 % of control.
